Source: patent US9895330B2, “IDO inhibitors” (BRISTOL-MYERS SQUIBB COMPANY, priority 2013, dated 2018)

Target: T1, IDO (IFNγ-treated Hela cells) (Homo sapiens, UniProt P14902)
T1 construct: endogenous in cells; host or cells: Hela cells treated with IFNγ (10 ng/ml)
Test: IDO Kynurenine Assay with Hela Cells
Type: cell-based
Conditions: IFNγ 10 ng/ml, 20 hours incubation, kynurenine absorbance at 490 nm, read-out: Hela Cells LLE_IDO_ABS_DR (IC50)
Description: IDO Kynurenine Assay with Hela Cells
Hela cells were seeded at 30,000 cells per well in 40 ul RPMI/phenol red free media contains 10% FBS in a 384-well black wall clear bottom tissue culture plate (Matrix Technologies LLC). 270 nl of certain concentration of compound was then added to each well using ECHO liquid handling systems. 40 ul of IFNγ (R&D, 285-IF-100) at final concentration of 10 ng/ml was then added to column 2-24 with media to column 1 as control. The cells were incubated for 20 hours in 37° C. incubator with 5% CO2.
(§1) The compound treatments were stopped by adding trichloroacetic acid (Sigma-Aldrich) to a final concentration at 0.2%. The cell plate was further incubated at 50° C. for 30 minute. The equal volume supernatant (20 uL) and 0.2% (w/v) Ehrlich reagent (4-dimethylaminobenzaldehyde, Sigma-Aldrich) in glacial acetic acid were mixed in a new clear bottom 384-well plate. This plate was then incubated at room temperature for 30 minute. The absorbance at 490 nm was measured on Envision plate reader.
Compound IC50 values were calculated using the counts of no IFNγ control as one hundred percent inhibition, and counts of no compound but DMSO treatment as zero percent inhibition.

T1 sequence (P14902 whole entry): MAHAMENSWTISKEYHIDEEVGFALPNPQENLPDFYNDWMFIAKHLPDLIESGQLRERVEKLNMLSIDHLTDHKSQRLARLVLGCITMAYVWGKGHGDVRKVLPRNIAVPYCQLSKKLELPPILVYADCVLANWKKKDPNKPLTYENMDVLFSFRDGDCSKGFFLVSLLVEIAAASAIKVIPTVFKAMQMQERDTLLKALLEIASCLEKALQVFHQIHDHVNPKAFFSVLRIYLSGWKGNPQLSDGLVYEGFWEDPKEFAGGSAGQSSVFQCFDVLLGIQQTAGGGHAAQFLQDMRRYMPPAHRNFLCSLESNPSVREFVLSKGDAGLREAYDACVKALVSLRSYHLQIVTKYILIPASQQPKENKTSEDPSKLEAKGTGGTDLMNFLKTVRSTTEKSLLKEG

Point of comparison: `CC(C)CN(Cc1ccccc1)c1ccc(-c2ccccc2-c2nnn[nH]2)cc1NC(=O)Cc1ccc(C#N)cc1` [Example 54], IC50 10 nM. Against it:
- CC(C)CN(CC(C)C)c1ccc(-c2ccccc2-c2nnn[nH]2)cc1NC(=O)Cc1ccc(F)cc1 [Example 12, N-(4-(diisobutylamino)-2′-(1H-tetrazol-5-yl)biphenyl-3-yl)-2-(4-fluorophenyl)acetamide] — the same, 10 nM
- Cc1ccc(CC(=O)Nc2cc(-c3ccccc3-c3nnn[nH]3)ccc2-n2cccn2)cc1 [Example 46, 2-(4-methylphenyl)-N-[2-(1H-pyrazol-1-yl)-5-[2-(1H-1,2,3,4-tetrazol-5-yl)phenyl]phenyl]acetamide] — 23-fold higher, 230 nM
- CC(C)CN(Cc1ccccc1)c1ccc(-c2ccccc2-c2nnn[nH]2)cc1NC(=O)CC(C)(C)C [Example 47, N-(4-(Benzyl(isobutyl)amino)-2′-(2H-tetrazol-5-yl)biphenyl-3-yl)-3,3-dimethylbutanamide] — 47-fold higher, 470 nM
- CC(C)CN(Cc1ccccc1)c1ccc(-c2ccccc2-c2nnn[nH]2)cc1NC(=O)[C@H](O)c1ccccc1 [Example 48, (R)—N-(4-(Benzyl(isobutyl)amino)-2′-(1H-tetrazol-5-yl)biphenyl-3-yl)-2-hydroxy-2-phenylacetamide] — 160-fold higher, 1610 nM
- COc1ccc(OC(=O)Nc2cc(-c3ccccc3-c3nnn[nH]3)ccc2N(CC(C)C)CC(C)C)cc1 [Example 50, 4-methoxyphenyl (4-(diisobutylamino)-2′-(1H-tetrazol-5-yl)-[1,1′-biphenyl]-3-yl)carbamate] — 12-fold higher, 120 nM
- CC(C)CN(CC(C)C)c1ccc(-c2ccccc2-c2nnn[nH]2)cc1NC(=O)Oc1ccc2c(c1)OCO2 [Example 51, benzo[d][1,3]dioxol-5-yl (4-(diisobutylamino)-2′-(1H-tetrazol-5-yl)-[1,1′-biphenyl]-3-yl) carbamate] — 390-fold higher, 3910 nM
- COc1ccc(OC(=O)Nc2cc(-c3ccccc3-c3nnn[nH]3)ccc2N(CC(C)C)CC(C)C)cc1F [Example 52, 3-fluoro-4-methoxyphenyl (4-(diisobutylamino)-2′-(1H-tetrazol-5-yl)-[1,1′-biphenyl]-3-yl) carbamate] — 660-fold higher, 6560 nM
- CC(C)CN(CC(C)C)c1ccc(-c2ccccc2-c2nnn[nH]2)cc1NC(=O)Oc1ccc(OCc2ccccc2)cc1 [Example 53, 4-(benzyloxy)phenyl (4-(diisobutylamino)-2′-(1H-tetrazol-5-yl)-[1,1′-biphenyl]-3-yl)carbamate] — 320-fold higher, 3250 nM
- Cc1ccc(CC(=O)Nc2cc(-c3ccccc3-c3nnn[nH]3)ccc2N(Cc2ccccc2)CC(C)C)cc1 [Example 74] — 3.3-fold lower, 3.06 nM
- Cc1ccc(CC(=O)Nc2cc(-c3ccccc3-c3nnn[nH]3)ccc2N2CCC(F)(F)C2)cc1 [Example 75] — 180-fold higher, 1810 nM
- O=C(Cc1ccccc1C(F)(F)F)Nc1cc(-c2ccccc2-c2nnn[nH]2)ccc1-n1cccn1 [Example 76] — 28-fold higher, 280 nM
- CC(C)(C)CC(=O)Nc1cc(-c2ccccc2-c2nnn[nH]2)ccc1-n1cccn1 [Example 78] — 440-fold higher, 4440 nM
- N#Cc1ccc(CC(=O)Nc2cc(-c3ccccc3-c3nnn[nH]3)ccc2N2CC3CC2CN3Cc2ccccc2)cc1 (stereo not shown) [Example 79] — 250-fold higher, 2510 nM
- Cc1ccc(CC(=O)Nc2cc(-c3ccccc3-c3nnn[nH]3)ccc2N2CC3CC2CN3Cc2ccccc2)cc1 (stereo not shown) [Example 80] — within 1.5-fold, 8.44 nM
- O=C(Cc1ccccc1C(F)(F)F)Nc1cc(-c2ccccc2-c2nnn[nH]2)ccc1N1CC2CC1CN2Cc1ccccc1 (stereo not shown) [Example 81] — 10-fold higher, 100 nM
- CC(C)(C)CC(=O)Nc1cc(-c2ccccc2-c2nnn[nH]2)ccc1N1CC2CC1CN2Cc1ccccc1 (stereo not shown) [Example 82] — 360-fold higher, 3610 nM
- O=C(Nc1cc(-c2ccccc2-c2nnn[nH]2)ccc1N1CC2CC1CN2Cc1ccccc1)[C@H](O)c1ccccc1 (stereo partly shown) [Example 83] — 890-fold higher, 8920 nM

Target: T2, Human IDO1 (Homo sapiens, UniProt P14902)
T2 construct: expressed in transfected cells; host or cells: HEK293
T2 sequence (P14902 whole entry): as above
Test: IDO Kynurenine Assay with Human IDO1/HEK293 Cells
Type: cell-based
Conditions: 20 hours incubation, kynurenine absorbance at 490 nm, read-out: HEK human IDO-1 (IC50)
Description: IDO Kynurenine Assay with Human IDO1/HEK293 Cells
Human IDO1/HEK293 cells were seeded at 10,000 cells per 50 uL per well with RPMI/phenol red free media contains 10% FBS in a 384-well black wall clear bottom tissue culture plate (Matrix Technologies LLC) 125 nL of certain concentration of compound was then added to each well using ECHO liquid handling systems. The cells were incubated for 20 hours in 37° C. incubator with 5% CO2.
as §1, with “Trichloroacetic Acid” for “trichloroacetic acid”
Compound IC50 values were calculated using the counts of 500 nM of a reference standard treatment as one hundred percent inhibition, and counts of no compound but DMSO treatment as zero percent inhibition.

Point of comparison: `CC(C)CN(CC(C)C)c1ccc(-c2ccccc2-c2nnn[nH]2)cc1NC(=O)Cc1ccc(F)cc1` [Example 12, N-(4-(diisobutylamino)-2′-(1H-tetrazol-5-yl)biphenyl-3-yl)-2-(4-fluorophenyl)acetamide], IC50 2.99 nM. Against it:
- CC(C)CN(CC(C)C)c1ccc(-c2ccccc2-c2nnn[nH]2)cc1NC(=O)Cc1ccc(I)cc1 [Example 49, N-(4-(diisobutylamino)-2′-(1H-tetrazol-5-yl)-[1,1′-biphenyl]-3-yl)-2-(4-iodophenyl)acetamide] — within 1.5-fold, 3.17 nM
- Cc1ccc(CC(=O)Nc2cc(-c3ccccc3-c3nnn[nH]3)ccc2N(CC(C)C)CC(C)C)cn1 [Example 55] — 40-fold higher, 120 nM
- COC(C)(C)CCN(c1ccc(-c2ccccc2-c2nnn[nH]2)cc1NC(=O)Cc1ccc(C)nc1)C1CCCCC1 [Example 56] — 2500-fold higher, 7440 nM
- CC(C)CN(CC(C)C)c1ccc(-c2ccccc2-c2nnn[nH]2)cc1NC(=O)Cc1ccncc1 [Example 57] — 120-fold higher, 360 nM
- Cc1ccc(CC(=O)Nc2cc(-c3ccccc3-c3nnn[nH]3)cc(F)c2N(CC(C)C)C2CCCCC2)cc1 [Example 58] — 3.3-fold higher, 10 nM
- Cc1ccc(CC(=O)Nc2cc(-c3ccccc3C(=O)O)cc(F)c2N(CC(C)C)C2CCCCC2)cc1 [Example 59] — 27-fold higher, 80 nM
- Cc1ccc(CC(=O)Nc2cc(-c3cc(F)ccc3C(=O)O)cc(F)c2N(CC(C)C)C2CCCCC2)cc1 [Example 60] — 10-fold higher, 30 nM
- CCC(CC)N(CC(C)C)c1ccc(-c2cc(F)ccc2C(=O)O)cc1NC(=O)Cc1ccc(C)cc1 [Example 61] — 6.7-fold higher, 20 nM
- CCC(CC)N(CC(C)C)c1ccc(-c2ccccc2C(=O)O)cc1NC(=O)Cc1ccc(C)cc1 [Example 62] — 6.7-fold higher, 20 nM
- CCC(CC)N(CC(C)C)c1ccc(-c2ccccc2-c2nnn[nH]2)cc1NC(=O)Cc1ccc(C)cc1 [Example 63] — within 1.5-fold, 4.37 nM
- CC(C)CN(CC(C)C)c1ccc(-c2ccccc2-c2nnn[nH]2)cc1NC(=O)Cc1cc(Br)cs1 [Example 64] — 13-fold higher, 40 nM
- CC(C)CN(CC(C)C)c1ccc(-c2ccccc2-c2nnn[nH]2)cc1NC(=O)Cc1cccs1 [Example 65] — 6.7-fold higher, 20 nM
- CC(C)CN(CC(C)C)c1ccc(-c2ccccc2-c2nnn[nH]2)cc1NC(=O)Cc1ccsc1 [Example 66] — 6.7-fold higher, 20 nM
- CC(C)CN(CC(C)C)c1ccc(-c2ccccc2-c2nnn[nH]2)cc1NC(=O)Cc1ccc(Cl)nc1 [Example 67] — 6.7-fold higher, 20 nM
- CC(C)CN(CCOC(C)C)c1ccc(-c2ccccc2C(=O)O)cc1NC(=O)Cc1ccc(C#N)cc1 [Example 68] — 1600-fold higher, 4810 nM
- CC(C)CN(CCOC(C)C)c1ccc(-c2ccccc2-c2nnn[nH]2)cc1NC(=O)Cc1ccc(C#N)cc1 [Example 69] — 57-fold higher, 170 nM
- CC(C)CN(CCOC(C)C)c1ccc(-c2cc(F)ccc2C(=O)O)cc1NC(=O)Cc1ccc(C#N)cc1 [Example 70] — 980-fold higher, 2930 nM
- N#Cc1ccc(CC(=O)Nc2cc(-c3ccccc3-c3nnn[nH]3)ccc2N(CCCC(F)(F)F)C2CCCCC2)cc1 [Example 71] — 90-fold higher, 270 nM
- N#Cc1ccc(CC(=O)Nc2cc(-c3cc(F)ccc3C(=O)O)ccc2N(CCCC(F)(F)F)C2CCCCC2)cc1 [Example 72] — 620-fold higher, 1860 nM
- N#Cc1ccc(CC(=O)Nc2cc(-c3ccccc3C(=O)O)ccc2N(CCCC(F)(F)F)C2CCCCC2)cc1 [Example 73] — 710-fold higher, 2110 nM
- Cc1ccc(CC(=O)Nc2cc(-c3ccccc3-c3nnn[nH]3)ccc2N(Cc2ccccc2)CC(C)C)cc1 [Example 74] — 3.3-fold higher, 10 nM
- Cc1cc(CC(=O)Nc2cc(-c3cc(F)ccc3C(=O)O)ccc2N(CC(C)C)C2CCCCC2)on1 [Example 77] — 100-fold higher, 300 nM
- Cc1ccc(CC(=O)Nc2cc(-c3ccccc3-c3nnn[nH]3)ccc2N2CC3CC2CN3Cc2ccccc2)cc1 (stereo not shown) [Example 80] — 1.7-fold higher, 5.13 nM
- O=C(Cc1ccccc1C(F)(F)F)Nc1cc(-c2ccccc2-c2nnn[nH]2)ccc1N1CC2CC1CN2Cc1ccccc1 (stereo not shown) [Example 81] — 37-fold higher, 110 nM
- CC(C)CN(c1cc(F)c(-c2ccccc2C(=O)O)cc1NC(=O)Cc1ccc(C#N)cc1)C1CCCCC1 [Example 84] — 10-fold higher, 30 nM
- CC(C)CN(c1cc(F)c(-c2ccccc2-c2nnn[nH]2)cc1NC(=O)Cc1ccc(C#N)cc1)C1CCCCC1 [Example 85] — 13-fold higher, 40 nM
- Cc1cc(CC(=O)Nc2cc(-c3cc(F)ccc3C(=O)O)c(F)cc2N(CC(C)C)C2CCCCC2)on1 [Example 87] — 47-fold higher, 140 nM
